Experimental data taken from the supplement of paper PMC10307832.

Tests used:
Experiment in all cases: relative viability (nuclei count vs DMSO), 5 days (fraction); higher = more cells survive
QS11 + Pemetrexed = compound: C1CC2=C(C1)C=C(C=C2)OC3=NC(=C4C(=N3)N(C=N4)CC5=CC=C(C=C5)C6=CC=CC=C6)N[C@@H](CC7=CC=CC=C7)CO [QS11] + Nc1nc2[nH]cc(CCc3ccc(C(=O)N[C@@H](CCC(=O)O)C(=O)O)cc3)c2c(=O)[nH]1 [Pemetrexed] (partner 0.2 µM)
How it was run: (§1)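 Cells from lung cancer lines were seeded into 1536-well plates and, one day later, dosed by pin tool. Treatments were either a single drug or a fixed dose of an anchor drug with five library-drug doses (not always all listed) in √10 steps. After 5 days, nuclei were stained in a one-step fixation (final 0.05% Triton X-100, 1% formaldehyde, 1 ug/ml Hoechst) and counted on 4× images, and relative viability is the treated-to-vehicle nuclei ratio, as the median of duplicate plates.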

AZ628 + AZD7762 = compound: CC1=C(C=C(C=C1)NC(=O)C2=CC(=CC=C2)C(C)(C)C#N)NC3=CC4=C(C=C3)N=CN(C4=O)C [AZ628] + NC(=O)Nc1cc(-c2cccc(F)c2)sc1C(=O)N[C@H]1CCCNC1 [AZD7762] (partner 0.2 µM)
How it was run: as §1

Darinaparsin + Foretinib = compound: C[As](C)SC[C@H](NC(=O)CC[C@H](N)C(=O)O)C(=O)NCC(=O)O [Darinaparsin] + COc1cc2c(Oc3ccc(NC(=O)C4(C(=O)Nc5ccc(F)cc5)CC4)cc3F)ccnc2cc1OCCCN1CCOCC1 [Foretinib] (partner 0.25 µM)
How it was run: as §1

Darinaparsin + Dasatinib = compound: C[As](C)SC[C@H](NC(=O)CC[C@H](N)C(=O)O)C(=O)NCC(=O)O [Darinaparsin] + Cc1nc(Nc2ncc(C(=O)Nc3c(C)cccc3Cl)s2)cc(N2CCN(CCO)CC2)n1 [Dasatinib] (partner 0.075 µM)
How it was run: as §1

Cell Line	relative viability (QS11 + Pemetrexed; first compound 0.08 µM)	relative viability (QS11 + Pemetrexed; first compound 0.253 µM)	relative viability (QS11 + Pemetrexed; first compound 0.8 µM)	relative viability (QS11 + Pemetrexed; first compound 2.53 µM)	relative viability (QS11 + Pemetrexed; first compound 8 µM)	relative viability (AZ628 + AZD7762; first compound 0.08 µM)	relative viability (AZ628 + AZD7762; first compound 0.253 µM)	relative viability (AZ628 + AZD7762; first compound 0.8 µM)	relative viability (AZ628 + AZD7762; first compound 2.53 µM)	relative viability (AZ628 + AZD7762; first compound 8 µM)	relative viability (Darinaparsin + Foretinib; first compound 0.08 µM)	relative viability (Darinaparsin + Foretinib; first compound 0.8 µM)	relative viability (Darinaparsin + Foretinib; first compound 2.53 µM)	relative viability (Darinaparsin + Foretinib; first compound 8 µM)	relative viability (Darinaparsin + Dasatinib; first compound 0.08 µM)	relative viability (Darinaparsin + Dasatinib; first compound 0.8 µM)	relative viability (Darinaparsin + Dasatinib; first compound 2.53 µM)	relative viability (Darinaparsin + Dasatinib; first compound 8 µM)
NCI-H2342	0.77	0.829	0.809	0.797	0.795	0.489	0.44	0.623	0.53	0.625	0.959	1.04	1.03	1.17	0.358	0.302	0.296	0.312
NCI-H1734	0.374	0.393	0.393	0.472	0.424	0.504	0.56	0.561	0.473	0.373	1.04	0.801	0.815	0.99	0.461	0.441	0.44	0.49
NCI-H23	0.766	0.582	0.694	0.657	0.689	0.226	0.23	0.151	0.184	0.146	0.986	0.843	0.891	1.06	0.909	0.836	0.714	0.843
NCI-H647	0.2	0.146	0.155	0.159	0.202	0.485	0.417	0.456	0.488	0.397	1.53	1.31	1.01	1.45	0.21	0.205	0.149	0.233
NCI-H1915	0.583	0.538	–	0.567	0.529	0.741	0.782	0.644	0.558	0.271	1.2	1.08	0.958	1.25	0.329	0.32	0.317	0.323
201T	0.357	0.348	0.328	0.358	0.267	0.523	0.541	0.57	0.462	0.45	1.2	1.15	1.19	1.03	0.571	0.533	0.66	0.627
NCI-H3122	0.2	0.214	–	0.25	0.296	0.953	0.782	0.578	0.626	0.361	1.03	0.964	0.94	0.789	0.998	0.73	0.71	0.968
NCI-H2170	0.271	0.288	0.243	0.274	0.287	0.882	0.793	0.832	1.02	0.743	1.01	0.965	0.992	1.19	0.65	0.612	0.481	0.647
HCC-78	0.918	0.935	0.894	0.936	0.857	0.808	0.663	0.644	0.85	0.787	0.555	0.492	0.53	0.483	0.382	0.384	0.375	0.386
HARA	0.251	–	0.215	0.244	0.256	0.299	0.216	0.272	0.363	0.228	0.944	0.927	0.712	0.938	0.3	0.282	0.232	0.259
NCI-H2347	0.455	0.426	0.396	0.458	0.446	0.684	0.575	0.709	0.566	0.34	0.859	1.01	0.994	1.05	0.286	–	0.306	0.289
NCI-H1437	0.314	0.331	0.301	0.286	0.271	1.17	1.07	0.657	1.13	0.898	1.35	1.3	1.24	1.32	0.482	0.375	0.286	0.48
LXF-289	0.873	0.931	0.761	0.9	0.876	1.12	1.08	0.98	1.06	0.652	1.07	0.994	0.946	1.1	0.228	0.204	0.164	0.213
LU99A	0.169	0.172	0.173	0.169	0.168	0.436	0.363	0.415	0.33	0.22	0.833	0.703	0.806	0.819	0.627	0.59	0.473	0.519
NCI-H358	0.167	0.175	0.146	0.186	0.168	0.499	0.405	0.367	0.412	0.302	0.758	0.693	0.648	0.799	0.135	0.157	0.17	0.162
NCI-H1666	0.834	0.937	0.824	0.739	0.651	0.837	0.742	0.645	0.737	0.651	0.995	0.888	1.19	1.06	0.817	0.814	0.799	0.832
LOU-NH91	0.347	0.369	0.351	0.457	0.306	0.75	0.712	0.727	0.68	0.603	0.926	0.92	0.961	0.954	0.632	0.512	0.49	0.622
RERF-LC-KJ	0.51	0.461	0.443	0.482	0.439	0.948	0.901	1.56	1.03	0.87	1.03	0.931	0.859	0.961	0.916	0.87	0.621	0.758
